The record followed here is patent US8501783B2, “Conformationally restricted urea inhibitors of soluble epoxide hydrolase” (The Regents of the University of California, priority 2006, dated 2013).

One data set has as its target human sEH (Homo sapiens (Human), UniProt P34913). The data set can be described thus: Inhibition of human soluble epoxide hydrolase (IC50; one of three substrate methods).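 Note: enzyme expressed in baculovirus and affinity-purified, assays run in triplicate, with substrate and read-out differing among the three methods.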 It counts as biochemical.
A short description of data set [1]: Pharmacokinetic screening in dogs, oral administration, plasma LC-MS/MS. As to conditions: dog, plasma, po, 0.3 mg/kg.

Where two headings read alike, the source gives them in different places.

human sEH, sequence (P34913 whole entry): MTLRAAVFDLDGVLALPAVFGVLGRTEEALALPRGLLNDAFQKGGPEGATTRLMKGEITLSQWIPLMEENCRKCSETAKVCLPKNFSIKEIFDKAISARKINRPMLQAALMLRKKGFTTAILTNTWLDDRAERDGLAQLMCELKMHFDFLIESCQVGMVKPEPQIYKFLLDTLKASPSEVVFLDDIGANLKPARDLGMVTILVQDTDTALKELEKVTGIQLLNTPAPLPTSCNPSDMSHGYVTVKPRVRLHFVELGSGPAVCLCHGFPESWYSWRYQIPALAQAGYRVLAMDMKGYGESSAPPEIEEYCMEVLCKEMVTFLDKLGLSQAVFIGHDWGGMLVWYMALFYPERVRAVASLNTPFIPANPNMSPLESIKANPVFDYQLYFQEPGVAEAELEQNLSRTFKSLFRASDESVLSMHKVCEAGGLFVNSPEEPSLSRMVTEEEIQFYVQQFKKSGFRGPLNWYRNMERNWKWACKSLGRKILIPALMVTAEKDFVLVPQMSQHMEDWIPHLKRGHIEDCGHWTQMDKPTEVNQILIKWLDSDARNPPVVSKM

At human sEH, `CC(=O)N1CCC(NC(=O)NC2CCCCCC2)CC1` [Compound 1645, 1-(1-Acetyl-piperidin-4-yl)-3-cycloheptyl-urea] gave a 50% inhibitory concentration (IC50) of 0.0276 µM. Moreover, the AUC in data set [1] is 3680 nM·h. Turning to `CC(=O)N1CCC(NC(=O)CC23CC4CC(CC(C4)C2)C3)CC1` [Compound 1642], the IC50 at human sEH (recombinant human sEH) was determined as 0.275 µM. For the same compound, in data set [1], the area under the curve (AUC) was 96.7 nM·h.

Regarding `COC(=O)N1CCC(NC(=O)NC23CC4CC(CC(C4)C2)C3)CC1` [Compound 1702, 4-(3-Adamantan-1-yl-ureido)-piperidine-1-carboxylic acid methyl ester], the IC50 on human sEH (recombinant human sEH) came out at 0.0009 µM. For the same compound, the AUC in data set [1] was 90 nM·h. Consider `O=C(NC1CCCCC1)NC12CN3CN(CN(C3)C1)C2` [Compound 1549, 1-Cyclohexyl-3-(1,3,5-triaza-tricyclo[3.3.1.1^3.7]dec-7-yl)-urea], for which the IC50 at human sEH (recombinant human sEH) worked out at 13.6 µM.

As to `CS(=O)(=O)N1CCC(NC(=O)NC23CC4CC(CC(C4)C2)C3)CC1` [Compound 1701, 1-Adamantan-1-yl-3-(1-methanesulfonyl-piperidin-4-yl)-urea], the 50% inhibitory concentration (IC50) on human sEH (recombinant human sEH) was 0.0014 µM. For the same compound, the exposure (AUC) in data set [1] is 81.7 nM·h.

At human sEH, `O=C(NC1CCN(C(=O)c2ccc(C(=O)O)cc2)CC1)NC12CC3CC(CC(C3)C1)C2` [Compound 1523, 4-[4-(3-Adamantan-1-yl-ureido)-piperidine-1-carbonyl]-benzoic acid] had a concentration for half-maximal inhibition (IC50) of 0.0033 µM. In the case of `O=C(NCC1CCN(C(=O)c2ccc(C(=O)O)cc2)CC1)NC12CC3CC(CC(C3)C1)C2` [Compound 1522, 4-{4-[(3-Adamantan-1-yl-ureido)-methyl]-piperidine-1-carbonyl}-benzoic acid], the IC50 at human sEH (recombinant human sEH) is 0.0118 µM.

Take `O=C(NCC1CCN(C(=O)C(F)(F)F)CC1)NC12CC3CC(CC(C3)C1)C2` [Compound 1556]: at human sEH (recombinant human sEH), the IC50 was 0.0018 µM. As for `O=C(NCc1ccncc1)Oc1cccc(-c2ccccc2)c1` [Compound 1557, Pyridin-4 ylmethyl-carbamic acid biphenyl-3-yl ester], at human sEH (recombinant human sEH), the half-maximal inhibitory concentration (IC50) is 11.5 µM.
